Reference: ChEMBL document CHEMBL6087462, “Cuminaldehyde Potentiates Antiproteolytic Peptide Efficacy via Parallel Pathways of Enhanced Inner Membrane-Damaging Activity and Inhibition of Bacterial Energy Metabolism” (J Med Chem, 2025)

Key:
[1] = Subacute toxicity in C57BL/6 mouse assessed as change in CREA level at 125 mg/kg, po administered for 3 days; type: organism-based; conditions: in vivo, 72 h, time 3 day
[2] = Cytotoxicity against porcine IPEC-J2 cells assessed as cell death incubated for 4 hrs by MTT assay; type: toxicity, cell-based, Sus scrofa; conditions: pig, ipec-j2, 4 h
[3] = Acute toxicity in C57BL/6 mouse assessed as lethal dose measured for 5 days; conditions: in vivo, time 5 day
[4] = Subacute toxicity in C57BL/6 mouse assessed as change in spleen weight at 125 mg/kg, po administered for 3 days; type: organism-based; conditions: in vivo, 72 h, time 3 day
[5] = Subacute toxicity in C57BL/6 mouse assessed as change in liver weight at 125 mg/kg, po administered for 3 days; type: organism-based; conditions: in vivo, 72 h, time 3 day
[6] = Subacute toxicity in C57BL/6 mouse assessed as change in ALT level at 125 mg/kg, po administered for 3 days; type: organism-based; conditions: in vivo, 72 h, time 3 day
[7] = Subacute toxicity in C57BL/6 mouse assessed as reduction in body weight loss at 125 mg/kg, po administered for 3 days; type: organism-based; conditions: in vivo, 72 h, time 3 day
[8] = system: RAW264.7; experiment: Cytotoxicity against mouse RAW264.7 cells assessed as cell death incubated for 4 hrs by MTT assay; type: toxicity, cell-based; conditions: raw264.7, 4 h
[9] = system: HEK-293T; experiment: Cytotoxicity against human HEK293T cells assessed as cell death incubated for 4 hrs by MTT assay; type: toxicity, cell-based
[10] = Acute toxicity in C57BL/6 mouse assessed as ruffled fur at 80 mg/kg, po measured for 5 days; type: organism-based; conditions: in vivo, 120 h, time 5 day
[11] = Acute toxicity in C57BL/6 mouse assessed as animal survival at 80 mg/kg, po measured for 5 days; type: organism-based; conditions: in vivo, 120 h, time 5 day
[12] = Acute toxicity in C57BL/6 mouse assessed as animal survival at 40 mg/kg, po measured for 5 days; type: organism-based; conditions: in vivo, 120 h, time 5 day
[13] = Subacute toxicity in C57BL/6 mouse assessed as change in BUN level at 125 mg/kg, po administered for 3 days; type: organism-based; conditions: in vivo, 72 h, time 3 day
[14] = Subacute toxicity in C57BL/6 mouse assessed as change in kidney weight at 125 mg/kg, po administered for 3 days; type: organism-based; conditions: in vivo, 72 h, time 3 day

CC[C@H](C)[C@H](NC(=O)[C@@H](NC(=O)[C@@H](CCCNC(=N)N)NC(=O)[C@H](C)NC(=O)[C@H](C)NC(=O)[C@@H](N)Cc1cccc2ccccc12)[C@@H](C)CC)C(=O)N[C@@H](CC(C)C)C(=O)N[C@H](CCCNC(=N)N)C(=O)N[C@@H](Cc1c[nH]c2ccccc12)C(=O)N[C@H](CCCNC(=N)N)C(=O)N[C@@H](Cc1ccccc1)C(=O)N[C@@H](CCCNC(=N)N)C(=O)O
Activity [1]: Non-toxic | Activity [2]: < 50% | LD50 at 120 h [3]: 1010 mg/kg | Activity [4]: Non-toxic | Activity [5]: Non-toxic | Activity [6]: Non-toxic | Activity [7]: Non-toxic | Activity [8]: < 50% | Activity [9]: < 50% | Activity [10]: Non-toxic | Activity [11]: Non-toxic | Activity [12]: Non-toxic | Activity [13]: Non-toxic | Activity [14]: Non-toxic
